In ChEMBL document CHEMBL1143467, “Synthesis of potent and selective serotonin 5-HT1B receptor ligands” (Bioorg Med Chem Lett, 2005):

Experiments:
[1] = biological target: 5-hydroxytryptamine receptor 1D (Homo sapiens, UniProt P28221); assay: In vitro binding affinity towards cloned human 5-HT1D receptor using [3H]5-carboximidotryptamine as radioligand
[2] = biological target: T1, Muscarinic acetylcholine receptor M1 (Homo sapiens, UniProt P11229); assay: Affinity towards cloned Muscarinic acetylcholine receptor M1
T1 sequence (P11229 whole entry): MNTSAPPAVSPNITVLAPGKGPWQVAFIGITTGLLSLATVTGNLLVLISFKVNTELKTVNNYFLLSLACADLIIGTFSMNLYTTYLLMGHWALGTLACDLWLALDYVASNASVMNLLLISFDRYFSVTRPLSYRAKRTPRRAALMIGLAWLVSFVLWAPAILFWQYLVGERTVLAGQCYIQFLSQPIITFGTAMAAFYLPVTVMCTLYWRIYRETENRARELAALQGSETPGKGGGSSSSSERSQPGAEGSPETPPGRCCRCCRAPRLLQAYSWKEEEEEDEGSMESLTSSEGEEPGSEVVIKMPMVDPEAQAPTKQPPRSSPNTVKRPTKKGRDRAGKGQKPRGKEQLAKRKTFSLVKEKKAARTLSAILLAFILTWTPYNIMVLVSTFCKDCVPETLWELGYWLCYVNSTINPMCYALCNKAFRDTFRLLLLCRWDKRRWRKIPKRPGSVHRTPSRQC

[3] = biological target: T2, Muscarinic acetylcholine receptor M4 (Homo sapiens, UniProt P08173); assay: Affinity towards cloned Muscarinic acetylcholine receptor M4
T2 sequence (P08173 whole entry): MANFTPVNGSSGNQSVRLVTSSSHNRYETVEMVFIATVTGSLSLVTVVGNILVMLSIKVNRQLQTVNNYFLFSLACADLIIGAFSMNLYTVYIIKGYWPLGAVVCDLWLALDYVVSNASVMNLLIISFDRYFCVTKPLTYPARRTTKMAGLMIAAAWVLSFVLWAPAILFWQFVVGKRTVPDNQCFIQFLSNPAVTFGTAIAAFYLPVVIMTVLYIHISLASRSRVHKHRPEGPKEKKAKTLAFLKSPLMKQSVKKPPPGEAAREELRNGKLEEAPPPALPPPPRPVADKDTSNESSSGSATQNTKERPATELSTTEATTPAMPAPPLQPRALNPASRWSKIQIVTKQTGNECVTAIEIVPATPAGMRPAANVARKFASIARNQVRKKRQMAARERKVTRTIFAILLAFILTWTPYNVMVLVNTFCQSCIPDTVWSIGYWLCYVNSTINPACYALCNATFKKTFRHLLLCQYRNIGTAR

[4] = biological target: 5-hydroxytryptamine receptor 7 (Homo sapiens, UniProt P34969); assay: In vitro binding affinity towards cloned human 5-HT7 receptor using [3H]5-carboximidotryptamine as radioligand
[5] = biological target: T3, 5-hydroxytryptamine receptor 1A (Homo sapiens, UniProt P08908); assay: In vitro binding affinity towards cloned human 5-HT1A receptor using [3H]5-carboximidotryptamine as radioligand
T3 sequence (P08908 whole entry): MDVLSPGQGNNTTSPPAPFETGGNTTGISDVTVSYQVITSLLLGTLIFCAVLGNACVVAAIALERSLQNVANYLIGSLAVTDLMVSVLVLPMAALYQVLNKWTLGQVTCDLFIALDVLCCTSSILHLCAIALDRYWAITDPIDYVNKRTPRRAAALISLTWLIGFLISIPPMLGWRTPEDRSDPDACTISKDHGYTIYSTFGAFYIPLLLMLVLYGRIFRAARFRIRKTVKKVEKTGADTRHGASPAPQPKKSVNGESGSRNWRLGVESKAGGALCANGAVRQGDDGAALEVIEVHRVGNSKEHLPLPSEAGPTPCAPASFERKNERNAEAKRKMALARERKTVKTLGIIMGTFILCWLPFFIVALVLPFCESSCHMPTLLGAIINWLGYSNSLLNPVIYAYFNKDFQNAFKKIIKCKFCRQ

[6] = biological target: 5-hydroxytryptamine receptor 6 (Homo sapiens, UniProt P50406); assay: In vitro binding affinity towards cloned human 5-HT6 receptor using [3H]5-carboximidotryptamine as radioligand
[7] = biological target: Delta-type opioid receptor (Homo sapiens, UniProt P41143); assay: Affinity towards cloned Opioid receptor delta 1
D(4) dopamine receptor = biological target: T4, D(4) dopamine receptor (Homo sapiens, UniProt P21917); assay: Affinity towards cloned Dopamine receptor D4
T4 sequence (P21917 whole entry): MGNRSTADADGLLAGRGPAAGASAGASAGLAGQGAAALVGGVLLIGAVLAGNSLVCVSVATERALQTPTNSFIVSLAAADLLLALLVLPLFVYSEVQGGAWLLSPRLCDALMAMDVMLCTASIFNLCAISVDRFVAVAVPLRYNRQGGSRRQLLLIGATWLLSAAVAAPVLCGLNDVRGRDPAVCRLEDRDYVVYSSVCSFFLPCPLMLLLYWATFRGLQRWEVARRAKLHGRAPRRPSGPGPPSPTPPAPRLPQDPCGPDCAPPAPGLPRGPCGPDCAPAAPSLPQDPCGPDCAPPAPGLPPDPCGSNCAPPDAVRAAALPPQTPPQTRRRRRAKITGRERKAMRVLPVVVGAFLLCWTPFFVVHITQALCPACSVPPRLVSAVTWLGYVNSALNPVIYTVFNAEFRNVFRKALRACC

[8] = biological target: Kappa-type opioid receptor (Homo sapiens, UniProt P41145); assay: Affinity towards cloned Opioid receptor kappa 1
[9] = biological target: 5-hydroxytryptamine receptor 1B (Homo sapiens, UniProt P28222); assay: In vitro binding affinity towards cloned human 5-HT1B receptor using [3H]5-carboximidotryptamine as radioligand
D(3) dopamine receptor = D(3) dopamine receptor (Homo sapiens, UniProt P35462); assay: Affinity towards cloned Dopamine receptor D3
[10] = biological target: T5, Muscarinic acetylcholine receptor M2 (Homo sapiens, UniProt P08172); assay: Affinity towards cloned Muscarinic acetylcholine receptor M2
T5 sequence (P08172 whole entry): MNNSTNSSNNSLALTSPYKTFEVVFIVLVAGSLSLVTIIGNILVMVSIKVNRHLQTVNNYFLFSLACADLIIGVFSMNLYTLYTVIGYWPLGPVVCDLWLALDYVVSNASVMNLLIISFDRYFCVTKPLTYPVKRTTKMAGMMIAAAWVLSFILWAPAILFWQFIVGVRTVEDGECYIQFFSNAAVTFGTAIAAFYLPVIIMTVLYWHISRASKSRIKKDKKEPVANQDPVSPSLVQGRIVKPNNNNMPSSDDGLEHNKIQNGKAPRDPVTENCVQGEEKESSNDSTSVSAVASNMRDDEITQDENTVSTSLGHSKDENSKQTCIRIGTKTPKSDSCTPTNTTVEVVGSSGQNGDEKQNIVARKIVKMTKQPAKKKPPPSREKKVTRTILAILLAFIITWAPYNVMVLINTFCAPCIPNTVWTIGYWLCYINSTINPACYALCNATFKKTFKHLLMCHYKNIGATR

5-hydroxytryptamine receptor 6, sequence (P50406 whole entry): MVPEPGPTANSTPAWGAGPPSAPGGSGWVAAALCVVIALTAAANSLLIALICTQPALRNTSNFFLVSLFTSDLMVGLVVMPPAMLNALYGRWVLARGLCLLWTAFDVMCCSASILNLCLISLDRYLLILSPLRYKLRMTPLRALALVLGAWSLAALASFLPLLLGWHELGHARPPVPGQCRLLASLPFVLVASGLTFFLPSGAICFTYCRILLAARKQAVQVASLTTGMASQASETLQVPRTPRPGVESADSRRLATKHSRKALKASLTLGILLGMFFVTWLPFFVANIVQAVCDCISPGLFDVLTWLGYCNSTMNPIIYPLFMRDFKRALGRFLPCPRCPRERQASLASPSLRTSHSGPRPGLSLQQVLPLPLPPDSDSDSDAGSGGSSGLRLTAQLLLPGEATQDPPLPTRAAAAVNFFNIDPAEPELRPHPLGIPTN
Delta-type opioid receptor, sequence (P41143 whole entry): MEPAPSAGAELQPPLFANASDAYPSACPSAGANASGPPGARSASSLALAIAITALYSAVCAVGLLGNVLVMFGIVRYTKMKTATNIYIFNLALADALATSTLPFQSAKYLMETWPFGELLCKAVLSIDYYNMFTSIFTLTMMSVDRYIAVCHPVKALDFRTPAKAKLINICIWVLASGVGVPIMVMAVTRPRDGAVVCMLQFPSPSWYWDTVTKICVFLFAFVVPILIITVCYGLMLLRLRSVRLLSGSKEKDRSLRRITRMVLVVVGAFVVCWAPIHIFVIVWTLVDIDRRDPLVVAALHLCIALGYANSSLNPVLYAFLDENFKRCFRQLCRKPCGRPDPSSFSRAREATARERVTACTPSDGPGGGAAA
D(3) dopamine receptor, sequence (P35462 whole entry): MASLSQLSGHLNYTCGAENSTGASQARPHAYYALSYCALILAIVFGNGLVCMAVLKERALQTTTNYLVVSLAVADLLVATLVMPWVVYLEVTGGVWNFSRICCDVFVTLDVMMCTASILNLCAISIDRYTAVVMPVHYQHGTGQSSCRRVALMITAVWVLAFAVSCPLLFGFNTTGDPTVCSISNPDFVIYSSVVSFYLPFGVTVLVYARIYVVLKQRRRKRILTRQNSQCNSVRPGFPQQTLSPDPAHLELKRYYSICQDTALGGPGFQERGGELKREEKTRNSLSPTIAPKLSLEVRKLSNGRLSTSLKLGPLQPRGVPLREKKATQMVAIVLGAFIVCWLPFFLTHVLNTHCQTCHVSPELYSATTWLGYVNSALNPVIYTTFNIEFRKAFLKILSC
5-hydroxytryptamine receptor 7, sequence (P34969 whole entry): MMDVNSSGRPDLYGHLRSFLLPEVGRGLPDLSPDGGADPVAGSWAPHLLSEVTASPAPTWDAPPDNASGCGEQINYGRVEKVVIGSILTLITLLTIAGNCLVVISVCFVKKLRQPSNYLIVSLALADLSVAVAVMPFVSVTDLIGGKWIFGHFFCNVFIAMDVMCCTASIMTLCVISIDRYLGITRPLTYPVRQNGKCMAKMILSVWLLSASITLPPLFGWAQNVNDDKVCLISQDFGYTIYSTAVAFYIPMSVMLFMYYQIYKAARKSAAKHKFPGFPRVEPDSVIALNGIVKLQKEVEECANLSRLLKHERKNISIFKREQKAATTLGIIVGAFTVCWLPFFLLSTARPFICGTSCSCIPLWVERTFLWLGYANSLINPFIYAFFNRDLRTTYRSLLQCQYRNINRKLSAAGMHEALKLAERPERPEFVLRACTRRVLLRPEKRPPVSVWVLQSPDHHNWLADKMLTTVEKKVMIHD
5-hydroxytryptamine receptor 1D, sequence (P28221 whole entry): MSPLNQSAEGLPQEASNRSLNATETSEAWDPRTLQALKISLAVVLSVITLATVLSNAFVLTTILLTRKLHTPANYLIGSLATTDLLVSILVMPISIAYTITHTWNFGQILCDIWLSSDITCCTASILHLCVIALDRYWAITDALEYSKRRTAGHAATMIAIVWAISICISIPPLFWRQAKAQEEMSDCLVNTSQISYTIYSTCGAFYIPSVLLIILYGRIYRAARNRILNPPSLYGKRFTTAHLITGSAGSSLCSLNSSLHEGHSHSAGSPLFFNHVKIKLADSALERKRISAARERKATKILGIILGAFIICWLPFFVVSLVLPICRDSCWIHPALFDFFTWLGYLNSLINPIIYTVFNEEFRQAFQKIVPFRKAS
5-hydroxytryptamine receptor 1B, sequence (P28222 whole entry): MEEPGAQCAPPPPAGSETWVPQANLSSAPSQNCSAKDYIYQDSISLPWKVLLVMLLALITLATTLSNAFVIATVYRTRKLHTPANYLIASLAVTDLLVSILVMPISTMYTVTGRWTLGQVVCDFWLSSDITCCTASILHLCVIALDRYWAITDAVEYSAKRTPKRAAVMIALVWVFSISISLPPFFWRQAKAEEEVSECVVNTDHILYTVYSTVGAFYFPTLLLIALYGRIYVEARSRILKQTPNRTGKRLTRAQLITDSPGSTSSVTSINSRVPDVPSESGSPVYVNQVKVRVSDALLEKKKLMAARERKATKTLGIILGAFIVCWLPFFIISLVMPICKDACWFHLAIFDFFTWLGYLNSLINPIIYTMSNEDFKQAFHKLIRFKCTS
Kappa-type opioid receptor, sequence (P41145 whole entry): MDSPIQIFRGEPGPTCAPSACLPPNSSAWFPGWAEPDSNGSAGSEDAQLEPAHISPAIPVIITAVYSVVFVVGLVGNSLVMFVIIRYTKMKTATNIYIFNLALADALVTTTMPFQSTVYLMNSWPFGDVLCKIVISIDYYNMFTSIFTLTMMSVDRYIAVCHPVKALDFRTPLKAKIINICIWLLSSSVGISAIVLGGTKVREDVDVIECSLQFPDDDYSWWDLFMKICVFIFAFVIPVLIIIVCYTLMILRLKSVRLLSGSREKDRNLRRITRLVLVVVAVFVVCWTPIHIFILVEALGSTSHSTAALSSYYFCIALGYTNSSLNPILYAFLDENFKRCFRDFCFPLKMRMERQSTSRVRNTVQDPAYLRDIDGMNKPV

`COc1ccc(NC(=O)N2CCN(c3ccc(Cl)cc3)CC2)cc1N1CCN(C)CC1` showed a Ki [1] of 0.00651 µM, a Ki [2] of over 10 µM and a Ki [3] of over 10 µM. The Ki [4] was over 10 µM, the Ki [5] was 0.0525 µM and the Ki [6] was 5.09 µM. It also gave a Ki [7] of over 10 µM, a Ki (D(4) dopamine receptor) of over 10 µM and a Ki [8] of over 10 µM. The Ki [9] was 0.00182 µM, the Ki (D(3) dopamine receptor) was over 10 µM and the Ki [10] was over 10 µM.
`COc1ccc(NC(=O)N2CCN(c3ccc(SC)cc3)CC2)cc1N1CCN(C)CC1` gave a Ki [1] of 0.329 µM, a Ki [2] of over 10 µM and a Ki [3] of over 10 µM. For the same compound, the Ki [4] was over 10 µM, the Ki [5] was 0.882 µM and the Ki [6] was over 10 µM. The Ki [7] was over 10 µM, the Ki (D(4) dopamine receptor) was over 10 µM and the Ki [8] was over 10 µM. The Ki [9] was 0.0167 µM, the Ki (D(3) dopamine receptor) was over 10 µM and the Ki [10] was over 10 µM.
With `COc1ccc(NC(=O)c2ccc(-c3ccc(-c4noc(C)n4)cc3C)cc2)cc1N1CCN(C)CC1` [GR-127935] the Ki [2] was over 10 µM, the Ki [3] was over 10 µM and the Ki [4] was over 10 µM. It also gave a Ki [5] of 0.08 µM, a Ki [6] of over 10 µM and a Ki [7] of over 10 µM. It also gave a Ki (D(4) dopamine receptor) of over 10 µM, a Ki [8] of over 10 µM and a Ki [9] of 0.00431 µM. It also gave a Ki (D(3) dopamine receptor) of over 10 µM and a Ki [10] of over 10 µM.
With `COc1ccccc1N1CCC(C(=O)Nc2ccc(OC)c(N3CCN(C)CC3)c2)CC1` the Ki [1] was 0.0154 µM, the Ki [2] was over 10 µM and the Ki [3] was over 10 µM. It also gave a Ki [5] of 0.0154 µM, a Ki [7] of over 10 µM and a Ki (D(4) dopamine receptor) of over 10 µM. It also gave a Ki [8] of over 10 µM, a Ki [9] of 0.00968 µM and a Ki (D(3) dopamine receptor) of over 10 µM. It also gave a Ki [10] of over 10 µM.
For `COc1ccc(NC(=O)N2CCN(c3ccccc3F)CC2)cc1N1CCN(C)CC1`, the Ki [1] was 0.103 µM, the Ki [2] was over 10 µM and the Ki [3] was over 10 µM. The Ki [4] was over 10 µM, the Ki [5] was 0.315 µM and the Ki [6] was 0.841 µM. It also gave a Ki [7] of over 10 µM, a Ki (D(4) dopamine receptor) of over 10 µM and a Ki [8] of over 10 µM. It also gave a Ki [9] of 0.0181 µM, a Ki (D(3) dopamine receptor) of over 10 µM and a Ki [10] of over 10 µM.
`COc1ccc(NC(=O)N2CCN(c3ccc(-c4ccccc4)cc3)CC2)cc1N1CCN(C)CC1` showed a Ki [1] of 0.209 µM, a Ki [2] of over 10 µM and a Ki [3] of over 10 µM. For the same compound, the Ki [4] was over 10 µM, the Ki [5] was 0.405 µM and the Ki [6] was 1.43 µM. The Ki [7] was over 10 µM, the Ki (D(4) dopamine receptor) was over 10 µM and the Ki [8] was over 10 µM. For the same compound, the Ki [9] was 0.0137 µM, the Ki (D(3) dopamine receptor) was over 10 µM and the Ki [10] was over 10 µM.
With `COc1ccc(NC(=O)N2CCN(c3ccccc3Cl)CC2)cc1N1CCN(C)CC1` the Ki [1] was 0.0347 µM, the Ki [2] was over 10 µM and the Ki [3] was over 10 µM. The Ki [4] was 0.342 µM, the Ki [5] was 0.335 µM and the Ki [6] was 0.469 µM. For the same compound, the Ki [7] was over 10 µM, the Ki (D(4) dopamine receptor) was over 10 µM and the Ki [8] was over 10 µM. The Ki [9] was 0.0113 µM, the Ki (D(3) dopamine receptor) was over 10 µM and the Ki [10] was over 10 µM.
`COc1ccc(NC(=O)N2CCN(c3ccc(C(F)(F)F)cc3)CC2)cc1N1CCN(C)CC1` was tested, and the Ki [1] was 0.345 µM, the Ki [2] was over 10 µM and the Ki [3] was over 10 µM. The Ki [4] was over 10 µM, the Ki [5] was 0.382 µM and the Ki [6] was 2.86 µM. It also gave a Ki [7] of over 10 µM, a Ki (D(4) dopamine receptor) of over 10 µM and a Ki [8] of over 10 µM. It also gave a Ki [9] of 0.0284 µM, a Ki (D(3) dopamine receptor) of over 10 µM and a Ki [10] of over 10 µM.
For `COc1ccc(NC(=O)N2CCN(c3ccc(F)cc3)CC2)cc1N1CCN(C)CC1`, the Ki [1] was 0.168 µM, the Ki [2] was over 10 µM and the Ki [3] was over 10 µM. For the same compound, the Ki [4] was over 10 µM, the Ki [5] was 1.08 µM and the Ki [6] was over 10 µM. For the same compound, the Ki [7] was over 10 µM, the Ki (D(4) dopamine receptor) was over 10 µM and the Ki [8] was over 10 µM. It also gave a Ki [9] of 0.0383 µM, a Ki (D(3) dopamine receptor) of over 10 µM and a Ki [10] of over 10 µM.
